These results are taken from publication PMC5803267, “A small molecule inhibitor of Rheb selectively targets mTORC1 signaling” (Nature Communications, 2018).

For data set [1], the system named is T389pS6K1 (mTORC1) in PC3 cells. The data set can be described thus: Chronic treatment of PC3 cells, T389pS6K1 Western blot. Type of data set: cell-based, human. On the procedure:
(§1) MCF-7 cells were serum-starved for 16 h and treated with compound for 90 min before cell lysis and Western blot analysis. For insulin-stimulated cells, 100 nM insulin was added 30 min before cell lysis. For EGF-stimulated cells, 100 ng mL^−1 EGF was added 10 min before cell lysis. c Rap1 activity was detected in lysates loaded in vitro with either GDP or GTPγS and treated with NR1 at the indicated concentrations. This was followed by a subsequent pulldown of GST-RalGDS-RBD. Bound Rap1 was detected by Western blot. d Evaluation of NR1 in a LAM patient-derived cell line (TRI102) under replete and serum-starved conditions. For replete conditions, TRI102 cells were treated for 90 min with compound in DMEM + 10% FBS. For serum-starved conditions, TRI102 cells were serum-starved 16 h and then treated for 90 min with compound prior to cell lysis and Western blot analysis. e HEK293 cells co-transfected with the indicated mTOR constructs and HA-GST-S6K1 were starved of amino acids or treated with NR1. To assess mTORC1 activity, an HA IP was performed and Western blots probed for ^T389pS6K1. f Chronic treatment of PC3 cells with NR1 to evaluate the inhibition of mTORC1 (using ^T389pS6K1) versus mTORC2 (using ^S473pAKT). PC3 cells were treated with compound under replete conditions for 24 h prior to cell lysis and Western blot analysis.
Accordingly, a hallmark of a selective mTORC1 inhibitor such as NR1 would be the lack of mTORC2 inhibition irrespective of the duration of treatment. PC3 cells are sensitive to mTORC2 inhibition with long-term rapamycin treatment. Indeed, upon treatment with rapamycin for 24 h, both ^T389pS6K1 and ^S473pAKT were lowered, indicating inhibitory effects on both mTORC1 and mTORC2, respectively.
For Western-based signaling assays, cells were treated for either 90 min or 2–24 h as indicated before lysis, normalization, and Western analysis. Cells were lysed in Triton lysis buffer: 1% Triton X-100, 50 mM HEPES pH 7.4, 100 mM NaCl, 2 mM EDTA, 10 mM β-glycerophosphate, 10 mM Na-pyrophosphate, protease inhibitor.
A general note: Immunoblotting shows a protein as a band on a membrane.

In data set [2] the target is T1, Rheb-dependent mTORC1 kinase activity (Homo sapiens, UniProt Q15382).
T1 construct: using full-length Rheb and mTORC1 purified from mammalian cells via a Flag-Raptor handle; made in house; host or cells: HA-GST-Rheb: Freestyle 293-F cells transfected with pRK5-HA-GST-Rheb; mTORC1: HEK-293E cells stably expressing FLAG-Raptor
The data set can be described thus: Rheb-dependent mTORC1 in vitro kinase assay (Rheb-IVK). Type of data set: biochemical.

Data set [3] relates to T389pS6K1 in HEK293 cells. The data set can be described thus: T389pS6K1 in HEK293 cells transfected with WT or constitutively active mTOR mutants. Type of data set: cell-based, human. As to conditions: HEK293, 30 µM NR1 for 90 min. On the procedure: as §1, with “To assess mTORC1 activity, an HA IP was performed and Western blots probed for ^T389pS6K1. f Chronic treatment of PC3 cells with NR1 to evaluate the inhibition of mTORC1 (using ^T389pS6K1) versus mTORC2 (using ^S473pAKT). PC3 cells were treated with compound under replete conditions for 24 h prior to cell lysis and Western blot analysis.” left out
To further support Rheb as the target of NR1, we assessed whether NR1 could inhibit ^T389pS6K1 in cells transfected with constitutively active, Rheb-independent double mutants of mTOR originally described by Xu et al.[48]. […]

Data set [4] is described as follows: Pharmacokinetic profile in mouse plasma. Type of data set: in vivo. On the procedure:
The selective inhibition of mTORC1 activation by NR1 in vitro and in cell-based systems prompted us to evaluate the effect of this compound on mTORC1 activity in vivo. […] In particular, the plasma concentration of NR1 was sustained over 5 µM for 2 h after IP administration of a 30 mg kg^−1 dose (Supplementary Fig. 10). We therefore carried out a pharmacodynamic (PD) study to evaluate the efficacy of NR1 at inhibiting mTORC1 signaling in vivo. In this experiment, mice were starved overnight to achieve a low basal level of mTORC1 activation (pre-dose). After a 16 h fast, the animals were treated with either vehicle or 30 mg kg^−1 NR1 and allowed to re-feed for 2 h before sacrifice and tissue collection. mTORC1 activity was measured by quantification of ^S240/244pS6 by Western blot analysis with a specific antibody. We chose kidney and gastrocnemius muscle as target tissues due to the relevance of mTORC1 in renal cell carcinoma[51] and angiomyolipomas in TSC and LAM[12] and for its important role in the regulation of protein synthesis and muscle mass[52]. The results are summarized in Fig. 6 for skeletal muscle and Supplementary Fig. 11 for kidney.
This study was conducted in accordance with the requirements for the humane care and use of animals set forth in the Animal Welfare Act, the IACUC Guide for the Care and Use of Laboratory Animals, applicable Shanghai and state laws, and regulations and policies of Shanghai ChemPartner Ltd. The animals were not randomized, and the study was not blinded. Male C57BL/6 mice (5 per treatment group, 6–7 weeks old) were fasted of food overnight for 16 hours. IP injection of compound dissolved in MC Tween (0.5% methyl cellulose and 0.1% Tween-80 in water) was given, and then the mice were allowed to feed again ad libitum until sacrifice. The animals were euthanized with CO2. Compound levels in the plasma of treated mice were measured by LC-MS/MS and compared to a standard curve of compound diluted into mouse plasma.
Supplementary Figure 10. Pharmacokinetic profile of NR1 in mouse plasma after a single 30
mg/Kg (body weight) intraperitoneal dose. The dotted line corresponds to 5 µM concentration. Error
bars represent standard deviation of the mean values for n=3 mice.

In the next data set the target is Rheb (Homo sapiens, UniProt Q15382). Nature of the data set: Affinity selection mass spectrometry (ASMS) Rheb binding. Particulars: result in words. The source says: We used both Rheb binding and functional activity to guide the SAR optimization. Due to its high sensitivity and ability to detect weak binding ligands, STD NMR was initially used to measure Rheb binding. In addition to the benzimidazole of 1, we also explored the related indole scaffold, which allowed a wider range of functionalization. […] Therefore, we also used affinity selection mass spectrometry (ASMS) as a semi-quantitative measure of Rheb binding.

Where [5] appears, read: ip, mouse plasma, single 30 mg/Kg intraperitoneal dose.

The structures appear in SMILES notation.

Chain of Rheb (Q15382 whole entry): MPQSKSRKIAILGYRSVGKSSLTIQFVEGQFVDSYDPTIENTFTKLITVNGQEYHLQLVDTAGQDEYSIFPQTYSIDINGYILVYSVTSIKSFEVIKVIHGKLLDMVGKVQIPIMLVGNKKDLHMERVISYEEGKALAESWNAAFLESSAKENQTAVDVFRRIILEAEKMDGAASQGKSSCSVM
T1 sequence (Q15382 1-181 limits assumed): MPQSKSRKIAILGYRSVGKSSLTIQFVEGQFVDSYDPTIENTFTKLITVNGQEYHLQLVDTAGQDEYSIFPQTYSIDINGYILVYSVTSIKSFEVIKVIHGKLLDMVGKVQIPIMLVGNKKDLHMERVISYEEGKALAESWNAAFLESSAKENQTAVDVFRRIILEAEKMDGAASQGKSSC

With `CN(C)C(=O)c1ccc(Cn2c(C(=O)O)cc3c(Br)cc(Sc4ccc(Cl)c(Cl)c4)cc32)cc1` [NR1, 4-bromo-6-(3,4-dichlorophenylthio)-1-(4-(dimethylcarbamoyl)benzyl)-1H-indole-2-carboxylic acid], in data set [1] (PC3, replete, 24 h, NR1 30 µM, rapamycin 100 nM), the “T389pS6K1 after 24 h treatment” value was “potent inhibition”. Also, the “pS6K1 over time course” value in data set [1] (PC3, time points 2 h through 24 h) is listed as “inhibits pS6K1”. The IC50 – broadly, the point on the concentration scale where inhibition reaches its midpoint – in data set [2] amounted to 2.1 µM. Further, in data set [3], the “T389pS6K1 phosphorylation with Rheb-independent mTOR mutants” value was “no impact on pS6K1” and the “T389pS6K1 phosphorylation with vehicle or WT mTOR” value is reported as “reduces”. Besides, in data set [4] (setting [5]), the AUC(0-inf) – broadly, total exposure, with the tail of the curve extrapolated – was 23500 ng·h/mL; the AUC(0-t) (commonly the area under the concentration-time curve up to a stated or last time point) turned out to be 23500 ng·h/mL; the Cmax (usually the maximum level reached in the sampled fluid or tissue) turned out to be 7800 ng/mL; the Tmax (as a rule, the time from dosing to the highest level) is 0.25 h. Besides, the half-life in data set [4] (ip, mouse plasma, single 30 mg/Kg intraperitoneal dose, read-out: Terminal t1/2 (converted)) is 2.24 h. The “plasma concentration sustained for 2 h” value in data set [4] (mouse, IP, 30 mg kg^−1) was “over 5 µM”. The “Rheb binding by ASMS” value at Rheb is listed as “significant affinity”.
